Consider three molecules from patent publication US9532983B2, “Benzofuran compounds, compositions, kits and/or methods thereof” (Savannah State University, priority 2013, dated 2017).

The structures appear in SMILES notation. “Also recorded” adds a separate entry of the source.

The target in series [1] is T1, Alpha2A (Homo sapiens, UniProt P08913).
T1 construct: expressed in transfected cells
T1 sequence (P08913 1-465): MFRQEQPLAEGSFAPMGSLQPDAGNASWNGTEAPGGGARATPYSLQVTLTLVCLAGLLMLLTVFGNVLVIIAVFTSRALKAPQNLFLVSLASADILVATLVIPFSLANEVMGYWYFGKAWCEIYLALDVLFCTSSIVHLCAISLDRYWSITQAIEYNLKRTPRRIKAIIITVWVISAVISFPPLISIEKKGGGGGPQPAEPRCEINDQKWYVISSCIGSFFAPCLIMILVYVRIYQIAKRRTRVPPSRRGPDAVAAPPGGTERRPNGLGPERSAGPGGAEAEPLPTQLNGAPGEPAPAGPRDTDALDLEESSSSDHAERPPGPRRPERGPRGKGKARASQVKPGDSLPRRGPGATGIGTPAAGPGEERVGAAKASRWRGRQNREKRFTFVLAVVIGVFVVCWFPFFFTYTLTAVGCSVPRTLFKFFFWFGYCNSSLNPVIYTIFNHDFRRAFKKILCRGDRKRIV
Nature of the series: Primary binding assay at non-sigma receptors: Alpha2A. Particulars: 10 μM (final) assay concentration. As for the experimental part: (§1) Initial primary binding screening assays were performed using a 50 μM (initial)−10 μM (final) assay concentration of reference and test compounds.

The target in series [2] is T2, Alpha2C (Homo sapiens, UniProt P18825).
T2 construct: expressed in transfected cells
T2 sequence (P18825 1-462): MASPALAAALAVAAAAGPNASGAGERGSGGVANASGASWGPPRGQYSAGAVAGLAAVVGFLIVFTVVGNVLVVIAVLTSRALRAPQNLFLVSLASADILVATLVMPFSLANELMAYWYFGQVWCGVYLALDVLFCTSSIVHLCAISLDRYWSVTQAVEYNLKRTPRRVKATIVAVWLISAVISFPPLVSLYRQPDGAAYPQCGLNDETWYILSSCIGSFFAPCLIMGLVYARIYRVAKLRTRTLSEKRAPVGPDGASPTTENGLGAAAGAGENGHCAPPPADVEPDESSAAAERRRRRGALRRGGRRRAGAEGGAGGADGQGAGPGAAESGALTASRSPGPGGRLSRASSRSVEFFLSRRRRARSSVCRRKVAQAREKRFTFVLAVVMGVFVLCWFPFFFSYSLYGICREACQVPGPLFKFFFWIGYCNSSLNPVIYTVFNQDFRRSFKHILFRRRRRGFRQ
The series can be described thus: Secondary binding assay, Ki determination: Alpha2C.

Series [3] deals with T1, Alpha2A. The series can be described thus: Secondary binding assay, Ki determination: Alpha2A.
The test system of series [4] is MA-10 cells. Nature of the series: Cell viability assay (MTT) in MA-10 cells. It counts as cell-based, mouse. As to conditions: 24 h, varying concentrations. The procedure:
Mouse Leydig cell line (MA-10) was grown in Waymouth media containing 15% horse serum, 5% fetal bovine serum, and 1× gentamycin, which was replaced with […] G418 (geneticin) for VDAC1 knockdown (ΔVDAC1) MA10 cells. Cells were maintained at 37° C. in a humidified incubator under 5% CO2. To isolate mitochondria, cells were removed from tissue culture plates by gentle scrapping in phosphate-buffered saline at room temperature, incubated in hypotonic buffer (10 mM HEPES, pH 7.4) for 30 to 40 min, and mitochondria were isolated following readily available procedures. The mitochondrial preparation was verified by Western blotting with the cytochrome P450 SCC enzyme (Corgen, Tapai, Taiwan) and calnexin antibodies (Santa Cruz Biotechnology, Inc., Santa Cruz, Calif.).
Stock solutions (1 mM) of the ligands were made in 1× phosphate buffered saline, filter-sterilized, and then further diluted up to 1 μM with serum-free medium. Cell viability was determined by the 3-[4,5-dimethylthiazol-2yl]-2,5-diphenyltetrazolium bromide assay using a commercially available kit following the manufacturer's instructions (Promega, Madison, Wis.). MA-10 cells were plated in a 96-well plate at an initial density of 4×10^3 cells per well for 24 h at 37° C. in 5% CO2 atm. After 24 h of serum starvation, the culture media were changed to serum-free media containing 1, 5, 10, 50, and 100 nM concentration for each KSCM ligand. Next, the cells were incubated for 2 to 3 h with 0.5 mg/ml of 3-[4,5-dimethylthiazol-2yl]-2,5-diphenyltetrazolium bromide reagent and lysed with dimethyl sulfoxide, and the absorbance was measured at 550 nm (FlexStation 3; Molecular Devices, Sunnyvale, Calif.).

For series [5], the target named is T3, 5-HT2B (Homo sapiens, UniProt P41595).
T3 construct: expressed in transfected cells
The series can be described thus: Secondary binding assay, Ki determination: 5-HT2B.

For series [6], the system named is non-sigma receptors. Nature of the series: Binding screen against panel of non-sigma receptors (overall statement). As for the experimental part: as §1
Series [7] addresses T4, D3 (Homo sapiens, UniProt P35462).
T4 construct: expressed in transfected cells
The series can be described thus: Primary binding assay at non-sigma receptors: D3. As to conditions: 10 μM (final) assay concentration. As for the experimental part: as §1

The target of series [8] is T5, 5HT3 (Homo sapiens, UniProt P46098).
T5 construct: expressed in transfected cells
T5 sequence (P46098 24-478): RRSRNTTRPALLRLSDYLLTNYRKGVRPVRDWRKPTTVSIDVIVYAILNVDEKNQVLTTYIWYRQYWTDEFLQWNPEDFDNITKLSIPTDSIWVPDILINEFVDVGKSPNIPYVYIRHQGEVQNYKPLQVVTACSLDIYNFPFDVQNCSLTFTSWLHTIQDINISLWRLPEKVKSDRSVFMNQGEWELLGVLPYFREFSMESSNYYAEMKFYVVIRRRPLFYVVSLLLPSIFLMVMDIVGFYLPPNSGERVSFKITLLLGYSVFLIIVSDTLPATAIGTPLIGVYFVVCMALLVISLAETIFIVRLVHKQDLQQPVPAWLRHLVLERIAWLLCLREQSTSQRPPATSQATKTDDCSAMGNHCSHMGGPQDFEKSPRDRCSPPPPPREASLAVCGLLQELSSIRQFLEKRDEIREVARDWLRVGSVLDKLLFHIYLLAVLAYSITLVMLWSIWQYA
Nature of the series: Secondary binding assay, Ki determination: 5HT3.

The target in series [9] is T6, M4 (Homo sapiens, UniProt P08173).
T6 construct: expressed in transfected cells
T6 sequence (P08173 1-479): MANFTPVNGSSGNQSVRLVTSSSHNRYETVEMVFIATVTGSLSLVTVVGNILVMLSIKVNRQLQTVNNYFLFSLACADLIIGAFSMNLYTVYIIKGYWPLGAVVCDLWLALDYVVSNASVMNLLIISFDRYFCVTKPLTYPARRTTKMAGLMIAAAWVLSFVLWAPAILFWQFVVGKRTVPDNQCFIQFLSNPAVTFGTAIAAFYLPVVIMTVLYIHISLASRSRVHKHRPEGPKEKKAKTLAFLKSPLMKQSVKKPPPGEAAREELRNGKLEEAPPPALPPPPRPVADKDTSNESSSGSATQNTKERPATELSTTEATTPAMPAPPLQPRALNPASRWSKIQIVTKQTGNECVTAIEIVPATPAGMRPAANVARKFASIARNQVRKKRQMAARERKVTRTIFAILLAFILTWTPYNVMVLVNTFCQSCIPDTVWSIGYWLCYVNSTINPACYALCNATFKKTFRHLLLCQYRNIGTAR
The series can be described thus: Secondary binding assay, Ki determination: M4.

T3 sequence (P41595 whole entry, species assumed): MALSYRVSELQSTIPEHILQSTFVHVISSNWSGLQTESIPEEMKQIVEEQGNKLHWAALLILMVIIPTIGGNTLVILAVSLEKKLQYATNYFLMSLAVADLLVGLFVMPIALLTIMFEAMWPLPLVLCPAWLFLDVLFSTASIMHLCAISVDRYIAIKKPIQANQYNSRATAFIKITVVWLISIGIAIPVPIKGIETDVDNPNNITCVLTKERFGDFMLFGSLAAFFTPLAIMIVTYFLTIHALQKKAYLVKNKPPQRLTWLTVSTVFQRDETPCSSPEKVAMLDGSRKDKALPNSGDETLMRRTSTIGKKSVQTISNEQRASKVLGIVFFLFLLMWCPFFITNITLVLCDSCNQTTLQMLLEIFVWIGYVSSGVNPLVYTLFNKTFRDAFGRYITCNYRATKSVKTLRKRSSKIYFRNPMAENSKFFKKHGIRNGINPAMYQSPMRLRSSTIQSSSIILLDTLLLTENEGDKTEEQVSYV
T4 sequence (P35462 whole entry): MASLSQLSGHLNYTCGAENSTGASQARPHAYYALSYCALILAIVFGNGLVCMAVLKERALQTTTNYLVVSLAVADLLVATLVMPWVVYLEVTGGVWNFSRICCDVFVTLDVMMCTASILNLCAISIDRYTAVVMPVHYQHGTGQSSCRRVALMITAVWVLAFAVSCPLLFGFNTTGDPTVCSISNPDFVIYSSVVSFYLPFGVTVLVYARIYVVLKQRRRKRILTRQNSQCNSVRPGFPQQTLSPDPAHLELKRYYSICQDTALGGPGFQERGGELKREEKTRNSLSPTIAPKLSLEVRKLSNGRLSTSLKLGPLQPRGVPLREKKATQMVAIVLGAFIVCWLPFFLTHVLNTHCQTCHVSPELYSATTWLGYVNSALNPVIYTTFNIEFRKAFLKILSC

`Cc1c(C(=O)N(CCCN2CCCCC2)c2ccccc2)oc2ccccc12` [KSCM-5, 3-Methyl-N-phenyl-N-(3-(piperidin-1-yl)propyl)benzofuran-2-carboxamide] had an inhibition at 10 µM in series [1] of 77.7%. In addition, the inhibition constant (Ki) in series [2] is 249 nM; in series [3], 1230 nM; in series [5] it was 936 nM. Further, in series [4], the “toxicity / effect on cell viability compared among the ligands (in words)” value is “most potent decrease in cell viability; also recorded: greatest toxicity”.
Regarding `COc1ccc2c(C)c(C(=O)N(CCCN3CCCCC3)c3ccccc3)oc2c1` [KSCM-11, 6-Methoxy-3-methyl-N-phenyl-N-(3-(piperidin-1-yl)propyl)benzofuran-2-carboxamide], the “affinity at non-sigma receptors selected for secondary binding assay (in words)” value in series [6] is “no significant affinity”. In [6], the “selectivity for sigma receptors (σ1 and σ2) over non-sigma receptors (in words)” value is reported as “have the desired selectivity for sigma receptors”. Besides, the inhibition at 10 µM turned out to be 40.6% in [7] and 81.1% in series [1]. The Ki was found to be 653 nM in [3] and 204 nM in series [5]. For the same molecule, the “toxicity / effect on cell viability compared among the ligands (in words)” value in series [4] is given as “greater cytotoxic effect than KSCM-1”.
Take `COc1cc2oc(C(=O)N(CCCN3CCCCC3)c3ccccc3)c(C)c2cc1OC` [KSCM-1, 5,6-Dimethoxy-3-methyl-N-phenyl-N-(3-(piperidin-1-yl)propyl)benzofuran-2-carboxamide]: the results for the inhibitory constant (Ki) in series [8], in series [2] and in series [9] were 7610 nM, 1540 nM and 2870 nM, respectively. Also, the inhibition at 10 µM in series [7] is 38.8%.
